Measurements published in patent publication US20250101017A1, “SALT CRYSTAL FORM AND FREE BASE CRYSTAL FORM OF KINASE INHIBITOR” (CYTOSINLAB THERAPEUTICS CO., LTD., priority 2022, published 2025).

How the values were obtained:
Type in all cases: physicochemical
[1] = Solubility at 37° C. in buffer solutions with different pH (about 10 mg in 1 ml, 2 h and 24 h); filtrate concentration and pH, XRPD of remaining solid; settings: for Crystal form: remaining solid, XRPD
Description: Approximately 10 mg of malate crystal form VII-A and free base Form A were weighed separately, and 1 ml of buffer solutions with different pH were added to make the solution supersaturated, and the mixtures were stirred at 37° C. for 2 h and 24 hours. The samples were filtered, and the filtrates were measured to determine the concentration and pH value, and the remaining solid was subjected to XRPD determination. The specific results were as follows: […]

[2] = Solid stability of crystal forms (80° C., light exposure, 25° C./60% RH, 40° C./75% RH); purity by liquid chromatography and XRPD of the solids
Description: A certain amount of API and malate crystal form VII-A were weighed and added into a liquid phase vial, and a total of 9 parallels were prepared. The 9 parallels were placed separately in 80° C. (open); 25° C., 60% RH (open); 40° C., 75% RH (open); and light stability box closed). The stabilities under conditions of: 80° C. for one day, light exposure for 10 days, as well as 25° C., 60% RH and 40° C., 75% RH for one and two weeks were tested, and the XRPD of the solids were measured.
A certain amount of crystal form B was weighed and added into a liquid phase vial, and a total of 9 parallels were prepared. 9 parallels were placed separately in 80° C.; 25° C., 60% RH, 40° C., 75% RH; and light stability boxe.

[3] = Competitive pulping of API (free base Form A) and Form B in saturated DCM or water solution at 50° C., XRPD
Description: A saturated solution of API (free base Form A) in DCM and water was prepared. Approximately 10 mg of API (free base Form A) and free base crystal form Form B was weighed respectively and added into a 4 ml glass bottle, and 1 mL of the saturated solution was added. […] The resulting solid was subjected to XRPD testing.

[4] = Dynamic moisture adsorption (DVS), hygroscopicity; settings: DVS; for moisture absorption weight gain: 80% RH humidity
Description: DSV pattern determination method: Dynamic moisture adsorption was performed using Intrinsic DVS. In step mode, the sample is subjected to loop testing at a relative humidity of 0-90%. The sample is analyzed at 10% RH. The dm/dt is set to 0.002 to achieve equilibrium between the sample and the room environment.
Approximately 250 mg of API was weighed and added into a 4 ml glass vial, and 2.5 ml of ethyl acetate was added. The mixture was stirred overnight under magnetic stirring at 50° C., cooled to room temperature, and then filtered, and the obtained solid was dried in vacuum overnight in a 50° C. oven. The resulting solid was free base crystal form Form B. The free base crystal form Form B was subjected to various characterization.

[5] = 25° C., 60% RH, 1 week, listed as API
[6] = 25° C., 60% RH, 2 weeks, listed as API
[7] = 40° C., 75% RH, 1 week, listed as API
[8] = 40° C., 75% RH, 2 weeks, listed as API
[9] = Light control, 10 days, listed as API
[10] = Light exposure, 10 days, listed as API

In the case of `CCc1nc2c(N)ncc(-c3ccc(N4CCC(N5CCN(CC)CC5)CC4)c(OC)c3)c2nc1NC1CCOCC1` [Free base Form A, 3-ethyl-8-(4-(4-(4-ethylpiperazin-1-yl)piperidin-1-yl)-3-methoxyphenyl)-N2-(tetrahydro-2H-pyran-4-yl) pyridino [3,4-b]pyrazine-2,5-diamine], the solubility at 24 h ([1]; pH 3.0 buffer solution, 37 °C, pH 3, aqueous buffer, thermodynamic from solid, medium pH 3.0, 24 h, read-out: Solubility at 37° C. (mg/ml) 24 h) is reported as over 10 mg/mL, the Crystal form ([1]; medium FaSSIF) is reported as “Free base” and the Crystal form ([1]; medium H2O) is reported as “Free base”. The Crystal form ([1]; medium pH 6.8) was “Free base”, the Crystal form ([1]; medium pH 7.4) was “Free base” and the “Degradation (%)” value ([2]; 25° C., 60% RH (open), 1 week) was 0.03%. For the same compound, the “Purity (%)” value ([2]; 25° C., 60% RH (open), 1 week) was 95.50%, the Crystal form ([2]; 25° C., 60% RH (open), 1 week, XRPD) was “Unchanged” and the “Degradation (%)” value ([2]; 25° C., 60% RH (open), 2 weeks) was 0.04%. The “Purity (%)” value ([2]; 25° C., 60% RH (open), 2 weeks) was 95.49%, the Crystal form ([2]; 25° C., 60% RH (open), 2 weeks, XRPD) was “Unchanged” and the Crystal form ([2]; 25° C., 60% RH, 1 week) was “Unchanged”. For the same compound, the Degradation [2, 5] was 0.03%, the Purity [2, 5] was 95.50% and the Crystal form ([2]; 25° C., 60% RH, 2 weeks) was “Unchanged”. The Degradation [2, 6] was 0.04%, the Purity [2, 6] was 95.49% and the “Degradation (%)” value ([2]; 40° C., 75% RH (open), 1 week) was 0.04%. The “Purity (%)” value ([2]; 40° C., 75% RH (open), 1 week) was 95.49%, the Crystal form ([2]; 40° C., 75% RH (open), 1 week, XRPD) was “Unchanged” and the “Degradation (%)” value ([2]; 40° C., 75% RH (open), 2 weeks) was 2.93%. The “Purity (%)” value ([2]; 40° C., 75% RH (open), 2 weeks) was 92.60%, the Crystal form ([2]; 40° C., 75% RH (open), 2 weeks, XRPD) was “Unchanged” and the Crystal form ([2]; 40° C., 75% RH, 1 week) was “Unchanged”. The Degradation [2, 7] was 0.04%, the Purity [2, 7] was 95.49% and the Crystal form ([2]; 40° C., 75% RH, 2 weeks) was “Unchanged”. The Degradation [2, 8] was 2.93%, the Purity [2, 8] was 92.60% and the “Degradation (%)” value ([2]; 80° C. (open), 1 day) was 0.14%. For the same compound, the “Purity (%)” value ([2]; 80° C. (open), 1 day) was 95.39%, the Crystal form ([2]; 80° C. (open), 1 day, XRPD) was “changed” and the Crystal form ([2]; 80° C., 1 day, listed as API) was “changed”. For the same compound, the Degradation ([2]; 80° C., 1 day, listed as API) was 0.14%, the Purity ([2]; 80° C., 1 day, listed as API) was 95.39% and the “Degradation (%)” value ([2]; Light contral, 10 days) was 0.02%. The “Purity (%)” value ([2]; Light contral, 10 days) was 95.51%, the Crystal form ([2]; Light contral, 10 days, XRPD) was “Unchanged” and the Crystal form ([2]; Light control, 10 days) was “Unchanged”. For the same compound, the Degradation [2, 9] was 0.02%, the Purity [2, 9] was 95.51% and the “Degradation (%)” value ([2]; Light exposure, 10 days) was 7.89%. For the same compound, the “Purity (%)” value ([2]; Light exposure, 10 days) was 88.14%, the Crystal form ([2]; Light exposure, 10 days, XRPD) was “changed” and the Crystal form [2, 10] was “changed”. For the same compound, the Degradation [2, 10] was 7.89%, the Purity [2, 10] was 88.14% and the “Purity (%)” value ([2]; initial) was 95.53%. For the same compound, the Purity ([2]; initial, listed as API) was 95.53%, the Degradation ([2]; light exposure and 40° C., 75% RH) was “varying degrees of degradation” and the “solid crystal form obtained by competitive pulping” value ([3]; API and Form B together in DCM, 50° C., 3 days, XRPD) was “tended to approach Form L”. For the same compound, the “appearance after competitive pulping” value ([3]; API and Form B together in DCM, after 5 days of beating) was “became oily”, the “crystal form obtained by competitive pulping” value ([3]; API and Form B together in water, 50° C., 3 days, XRPD) was “a mixture of Form B and API” and the XRPD results ([3]; competitive pulping of API and Form B, DCM, 50° C., 3 days) was “Form K”. For the same compound, the “moisture absorption weight gain” value [4] was 1.05%, the “moisture absorption weight gain” value ([4]; listed as API) was 11.12% and the hygroscopicity [4] was “slight hygroscopicity”.
